Test results taken from US3972872A, “6-[α-(ω-Guanidinoalkanoylamido)acylamido]penicillanic acids” (Pfizer Inc., priority 1975, dated 1976).
Converted amounts (≈) assume the structure as drawn. Structures can show the parent of a compound that is named as a salt. Where two headings read alike, the source gives them in different places.

What was measured:
Proteus mirabilis C020 = assay: In vitro MIC, Proteus mirabilis C020; assay type: cell-based; settings: unit assumed
From the text: (§1) The in vitro activity of the herein-described compounds renders them useful for topical application in the form of ointments, creams and the like, or for sterilization purposes, e.g., sick room utensils.
(§2) The in vitro spectra of a number of 6-[α-(ω-guanidinoalkanoylamido)acylamido]penicillanic acids of this invention against certain gram-negative bacteria are presented in Table I below. […] Th compounds of Table I have the formula

Pseudo. aeruginosa 490 = assay: In vitro MIC, Pseudo. aeruginosa 490; assay type: cell-based, Pseudomonas aeruginosa; settings: unit assumed
From the text: as §2

Serratia marcescens A001 = assay: In vitro MIC, Serratia marcescens A001; assay type: cell-based; settings: unit assumed
From the text: as §2

Proteus rettgeri B006 = assay: In vitro MIC, Proteus rettgeri B006; assay type: cell-based; settings: unit assumed
From the text: as §1, §2

Proteus vulgaris A059 = assay: In vitro MIC, Proteus vulgaris A059; assay type: cell-based; settings: unit assumed
From the text: as §2

Escherichia coli 266 = assay: In vivo protection of mice versus Escherichia coli 266; settings: Escherichia coli, 266, sc, 96 h, read-out: % Protection
From the text: (§3) Additionally, the compounds of this invention are active versus gram-positive and gram-negative bacteria in vivo via the parenteral route of administration in animals, including man. Their in vivo activity in animals, including man, by the oral route of administration is more limited as regards susceptible organisms. Nevertheless, oral in vivo activity against Escherichia coli and Staphylococcus aureus is a common property of many compounds of this invention. Table II below presents the comparative in vivo spectra of several compounds within the scope of this invention against D-α-aminobenzylpenicillin (Ampicillin).
(§4) The acute systemic infections in mice were produced by the intraperitoneal inoculation of standardized cultures suspended in 5% hog gastric mucin. Treatment with the drugs was initiated 0.5 hours after inoculation of the infecting organism. A second dose was administered 4 hours later. The PD50 values were calculated after a hold period of 4 days.

Pseudo. aeruginosa 173 = assay: In vitro MIC, Pseudo. aeruginosa 173; assay type: cell-based, Pseudomonas aeruginosa; settings: unit assumed
From the text: as §2

E. coli 266 = assay: In vitro MIC, E. coli 266, two-fold serial dilution; assay type: cell-based, Escherichia coli; settings: unit assumed
From the text: as §2

Pseudo. aeruginosa 104 = assay: In vitro MIC, Pseudo. aeruginosa 104; assay type: cell-based, Pseudomonas aeruginosa; settings: unit assumed
From the text: as §2

Proteus mirabilis C015 = assay: In vitro MIC, Proteus mirabilis C015; assay type: cell-based; settings: unit assumed
From the text: as §2

E. coli = assay: PD50 versus acute systemic E. coli infection in mice; assay type: in vivo; settings: Escherichia coli, 96 h, E. coli, mice
From the text: as §3, §4

P. aeruginosa = assay: PD50 versus acute systemic P. aeruginosa infection in mice; assay type: in vivo; settings: mice; for ED50: Pseudomonas aeruginosa, 96 h, P. aeruginosa, read-out: PD50
From the text: as §3, §4

S. aureus = assay: PD50 versus acute systemic S. aureus infection in mice; assay type: in vivo; settings: Staphylococcus aureus, 96 h, S. aureus, mice
From the text: as §3, §4

[1] = 50 mg./kg., mice, subcutaneous route

Row | Compound | MIC (Proteus mirabilis C020) [µg/mL] | MIC (Pseudo. aeruginosa 490) [µg/mL] | MIC (Serratia marcescens A001) [µg/mL] | MIC (Proteus rettgeri B006) [µg/mL] | MIC (Proteus vulgaris A059) [µg/mL] | responders at 50 mg/kg (Escherichia coli 266) [%] | MIC (Pseudo. aeruginosa 173) [µg/mL] | MIC (E. coli 266) [µg/mL] | MIC (Pseudo. aeruginosa 104) [µg/mL] | MIC (Proteus mirabilis C015) [µg/mL] | responders at 50 mg/kg (Escherichia coli 266; [1]) [%] | ED50 (E. coli; oral) [mg/kg] | ED50 (E. coli; sc, subcutaneous) [mg/kg] | ED50 (P. aeruginosa; oral) [mg/kg] | ED50 (P. aeruginosa; sc, subcutaneous) [mg/kg] | activity against Pseudomonas aeruginosa (in words) (P. aeruginosa; in vivo) | ED50 (S. aureus; oral) [mg/kg] | ED50 (S. aureus; sc, subcutaneous) [mg/kg]
1 | CC1(C)S[C@@H]2[C@H](NC(=O)[C@H](NC(=O)CNC3=NCCN3)c3ccccc3)C(=O)N2[C@H]1C(=O)O [CH2 NH--.angle..vertline., R=H, 6-[D-2-Phenyl-2-(2-Imidazolinylaminoacetamido)Acetamido]Penicillanic Acid] | 6.25 (≈ 13.2 µM) | 3.12 (≈ 6.57 µM) | 25 (≈ 52.7 µM) | 100 (≈ 211 µM) | 3.12 (≈ 6.57 µM) | 90 | 3.12 (≈ 6.57 µM) | 12.5 (≈ 26.3 µM) | 6.25 (≈ 13.2 µM) | 3.12 (≈ 6.57 µM) |  |  |  |  |  |  |  | 
2 | CC1(C)S[C@@H]2[C@H](NC(=O)[C@H](NC(=O)C3CCCN(C(=N)N)C3)c3ccccc3)C(=O)N2[C@H]1C(=O)O (some centres unmarked) [C(NH)NH2, R=H] |  | 1.56 (≈ 3.1 µM) | 6.25 (≈ 12.4 µM) |  | 6.25 (≈ 12.4 µM) |  | 6.25 (≈ 12.4 µM) | 6.25 (≈ 12.4 µM) | 12.5 (≈ 24.9 µM) | 3.12 (≈ 6.21 µM) | 80 |  |  |  |  |  |  | 
3 | CN(CC(=O)N[C@@H](C(=O)N[C@@H]1C(=O)N2[C@@H]1SC(C)(C)[C@@H]2C(=O)O)c1ccccc1)C(=N)N [CH2 N(CH3)--C(NH)NH2, R=H, 6-{D-2-Phenyl-2-[(1-Methylguanidino)Acetamido]Acetamido}-Penicillanic Acid] | 6.25 (≈ 13.5 µM) | 3.12 (≈ 6.75 µM) | 3.12 (≈ 6.75 µM) | 100 (≈ 216 µM) | 6.25 (≈ 13.5 µM) | 60 | 12.5 (≈ 27 µM) | 6.25 (≈ 13.5 µM) | 50 (≈ 108 µM) | 6.25 (≈ 13.5 µM) |  |  |  |  |  |  |  | 
4 | CC1(C)S[C@@H]2[C@H](NC(=O)[C@H](NC(=O)CCNC(=N)N)c3ccccc3)C(=O)N2[C@H]1C(=O)O [CH2 CH2 NH--C(NH)NH2, R=H, 6-[D-2-Phenyl-2-(Guanidinopropionamido)Acetamido]Penicillanic Acid] | 12.5 (≈ 27 µM) | 3.12 (≈ 6.75 µM) | 6.25 (≈ 13.5 µM) | 50 (≈ 108 µM) | 3.12 (≈ 6.75 µM) |  | 3.12 (≈ 6.75 µM) | 3.12 (≈ 6.75 µM) | 6.25 (≈ 13.5 µM) | 0.78 (≈ 1.69 µM) | 70 |  |  |  |  |  |  | 
5 | CC1(C)S[C@@H]2[C@H](NC(=O)[C@H](N)c3ccccc3)C(=O)N2[C@H]1C(=O)O [D-α-aminobenzylpenicillin, reference compound] |  | 0.78 (≈ 2.23 µM) | 200 (≈ 572 µM) |  | 6 (≈ 17.2 µM) |  | 200 (≈ 572 µM) | 3.1 (≈ 8.87 µM) | 200 (≈ 572 µM) | 1.5 (≈ 4.29 µM) | 100 | 25 ± 13 | 27 ± 9 | > 200 | > 200 | inactive | 2.5 ± 0.7 | 0.67 ± 0.4
6 | CC1(C)S[C@@H]2[C@H](NC(=O)[C@H](NC(=O)CN3CCNC3=N)c3ccccc3)C(=O)N2[C@H]1C(=O)O [CH2 --N--C(NH)--NHCH2 CH2, R=H] |  | 3.12 (≈ 6.57 µM) | 12.5 (≈ 26.3 µM) |  | 6.25 (≈ 13.2 µM) | 100 | 12.5 (≈ 26.3 µM) | 6.25 (≈ 13.2 µM) | 12.5 (≈ 26.3 µM) | 3.12 (≈ 6.57 µM) |  |  |  |  |  |  |  | 
7 | CC(C)(C)C(=O)OCOC(=O)[C@@H]1N2C(=O)[C@@H](NC(=O)[C@H](NC(=O)CNC(=N)N)c3ccccc3)[C@H]2SC1(C)C [CH2 NH--C(NH)NH2, R=POM, 6-[D-2-Phenyl-2-(Guanidinoacetamido)Acetamido]Penicillanic Acid, Pivaloyloxymethyl Ester, Hydrochloride] |  | 0.78 |  |  |  |  |  | 25 |  | 50 | 90 |  |  |  |  |  |  | 
8 | CC1(C)S[C@@H]2[C@H](NC(=O)[C@H](NC(=O)c3ccc(NC(=N)N)cc3)c3ccccc3)C(=O)N2[C@H]1C(=O)O [NH--C(NH)NH2 [1st of 4], R=H] | 12.5 (≈ 24.5 µM) | 0.78 (≈ 1.53 µM) | 3.12 (≈ 6.11 µM) | 25 (≈ 49 µM) | 6.25 (≈ 12.2 µM) |  | 0.78 (≈ 1.53 µM) | 3.12 (≈ 6.11 µM) | 0.78 (≈ 1.53 µM) | 3.12 (≈ 6.11 µM) | 10 |  |  |  |  |  |  | 
9 | CN(CC(=O)N[C@@H](C(=O)N[C@@H]1C(=O)N2[C@@H]1SC(C)(C)[C@@H]2C(=O)OCOC(=O)C(C)(C)C)c1ccccc1)C(=N)N [CH2 N(CH3)--C(NH)NH2, R=POM, 6-{D-2-Phenyl-2-[(1-Methylguanidino)Acetamido]Acetamido}-Penicillanic Acid, Pivaloyloxymethyl Ester, Hydrochloride] |  | 3.12 |  |  |  | 70 |  | 12.5 |  | 12.5 |  |  |  |  |  |  |  | 
10 | CC1(C)S[C@@H]2[C@H](NC(=O)[C@H](NC(=O)c3cccc(NC(=N)N)c3)c3ccccc3)C(=O)N2[C@H]1C(=O)O [NH--C(NH)NH2 [2nd of 4], R=H] | 25 (≈ 49 µM) | 0.78 (≈ 1.53 µM) | 12.5 (≈ 24.5 µM) | 12.5 (≈ 24.5 µM) | 3.12 (≈ 6.11 µM) |  | 1.56 (≈ 3.06 µM) | 3.12 (≈ 6.11 µM) | 1.56 (≈ 3.06 µM) | 6.25 (≈ 12.2 µM) | 60 |  |  |  |  |  |  | 
11 | CC(C)(C)C(=O)OCOC(=O)[C@@H]1N2C(=O)[C@@H](NC(=O)[C@H](NC(=O)CCNC(=N)N)c3ccccc3)[C@H]2SC1(C)C [CH2 CH2 NH--C(NH)NH2, R=POM, Hydrochloride] |  | 6.25 |  |  |  |  |  | 6.25 |  | 0.39 | 100 |  |  |  |  |  |  | 
12 | CC1(C)S[C@@H]2[C@H](NC(=O)[C@H](NC(=O)C3CCC(NC(=N)N)CC3)c3ccccc3)C(=O)N2[C@H]1C(=O)O (some centres unmarked) [NH--C(NH)NH2 [3rd of 4], R=H] | 25 (≈ 48.4 µM) | 6.25 (≈ 12.1 µM) | 12.5 (≈ 24.2 µM) | 50 (≈ 96.8 µM) | 50 (≈ 96.8 µM) |  | 1.56 (≈ 3.02 µM) | 6.25 (≈ 12.1 µM) | 3.12 (≈ 6.04 µM) | 6.25 (≈ 12.1 µM) | 50 |  |  |  |  |  |  | 
13 | CNC(=N)NCC(=O)N[C@@H](C(=O)N[C@@H]1C(=O)N2[C@@H]1SC(C)(C)[C@@H]2C(=O)O)c1ccccc1 [CH2 --NH--C(NH)NHCH3, R=H] |  | 0.78 (≈ 1.69 µM) | 3.12 (≈ 6.75 µM) |  | 3.12 (≈ 6.75 µM) | 100 | 3.12 (≈ 6.75 µM) | 1.56 (≈ 3.37 µM) | 1.56 (≈ 3.37 µM) | 1.56 (≈ 3.37 µM) |  |  |  |  |  |  |  | 
14 | CC1(C)S[C@@H]2[C@H](NC(=O)[C@H](NC(=O)Cc3ccc(NC(=N)N)cc3)c3ccccc3)C(=O)N2[C@H]1C(=O)O [NH--C(NH)NH2 [4th of 4], R=H] |  | 1.56 (≈ 2.97 µM) | 25 (≈ 47.7 µM) |  | 12.5 (≈ 23.8 µM) |  | 3.12 (≈ 5.95 µM) | 6.25 (≈ 11.9 µM) | 6.25 (≈ 11.9 µM) | 12.5 (≈ 23.8 µM) | 20 |  |  |  |  |  |  | 
